{
  "source": "patent US6274715A",
  "about": "“Tricyclic erythromycin derivatives” (priority 1997, dated 2001)",
  "type_in_all_cases": "cell-based",
  "key": {"[1]": {"test_system": "STAPHYLOCOCCUS AUREUS A5177", "assay": "In vitro antibacterial activity, MIC, BHI agar dilution", "settings": "S. aureus A5177, unit assumed"}, "[2]": {"test_system": "MYCOBACTERIUM SMEGMATIS ATCC 114", "assay": "In vitro antibacterial activity, MIC, BHI agar dilution", "settings": "M. smegmatis ATCC 114, unit assumed"}, "[3]": {"test_system": "STREPTOCOCCUS PYOGENES 930", "assay": "In vitro antibacterial activity, MIC, BHI agar dilution", "settings": "S. pyogenes 930, unit assumed"}, "[4]": {"test_system": "PSEUDOMONAS AERUGINOSA 5007", "assay": "In vitro antibacterial activity, MIC, BHI agar dilution", "settings": "P. aeruginosa 5007, unit assumed"}, "[5]": {"test_system": "PSEUDOMONAS AERUGINOSA DPHD-2862", "assay": "In vitro antibacterial activity, MIC, BHI agar dilution", "settings": "P. aeruginosa DPHD-2862, unit assumed"}, "ESCHERICHIA COLI H560": {"test_system": "ESCHERICHIA COLI H560", "assay": "In vitro antibacterial activity, MIC, BHI agar dilution", "settings": "E. coli H560, unit assumed"}, "H. Influenza Dill AMP R": {"test_system": "H. Influenza Dill AMP R", "assay": "In vitro antibacterial activity against H. Influenza Dill AMP R, MIC", "settings": "separate assay, unit assumed", "in_short": "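Agar dilution in Brain Heart Infusion agar, twelve successive compound dilutions, inoculated by Steers replicator with 1:100 (1:10 for slow growers) culture dilutions. Incubation 35-37° C. for 20 to 24 hours; MIC is lowest concentration giving no growth, slight haze or sparse colonies versus drug-free control.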"}, "PSEUDOMONAS CEPACIA 296I": {"test_system": "PSEUDOMONAS CEPACIA 296I", "assay": "In vitro antibacterial activity, MIC, BHI agar dilution", "settings": "P. cepacia 296I, unit assumed"}, "[6]": {"test_system": "STREPTOCOCCUS PYOGENES EES61", "assay": "In vitro antibacterial activity, MIC, BHI agar dilution", "settings": "S. pyogenes EES61, unit assumed"}, "[7]": {"test_system": "PSEUDOMONAS AERUGINOSA K799/61", "assay": "In vitro antibacterial activity, MIC, BHI agar dilution", "settings": "P. aeruginosa K799/61, unit assumed"}, "[8]": {"test_system": "STAPHYLOCOCCUS AUREUS A-5278", "assay": "In vitro antibacterial activity, MIC, BHI agar dilution", "settings": "S. aureus A-5278, unit assumed"}, "ESCHERICHIA COLI JUHL": {"test_system": "ESCHERICHIA COLI JUHL", "settings": "E. coli JUHL; BHI agar; unit assumed"}, "ESCHERICHIA COLI KNK 437": {"test_system": "ESCHERICHIA COLI KNK 437", "settings": "E. coli KNK 437; BHI agar; unit assumed"}, "[9]": {"test_system": "ENTEROBACTER AEROGENES ATCC 13048", "assay": "In vitro antibacterial activity, MIC, BHI agar dilution", "settings": "E. aerogenes ATCC 13048, unit assumed"}, "[10]": {"test_system": "STAPHYLOCOCCUS AUREUS ATCC 6538P", "assay": "In vitro antibacterial activity, MIC, BHI agar dilution", "settings": "S. aureus ATCC 6538P, 35-37° C., 20 to 24 hours, unit assumed"}, "[11]": {"test_system": "PSEUDOMONAS AERUGINOSA BMH10", "assay": "In vitro antibacterial activity, MIC, BHI agar dilution", "settings": "P. aeruginosa BMH10, unit assumed"}, "[12]": {"test_system": "PSEUDOMONAS AERUGINOSA K799/WT", "assay": "In vitro antibacterial activity, MIC, BHI agar dilution", "settings": "P. aeruginosa K799/WT, unit assumed"}, "[13]": {"test_system": "STAPHYLOCOCCUS AUREUS 1775", "assay": "In vitro antibacterial activity, MIC, BHI agar dilution", "settings": "S. aureus 1775, unit assumed"}, "ESCHERICHIA COLI DC-2": {"test_system": "ESCHERICHIA COLI DC-2", "assay": "In vitro antibacterial activity, MIC, BHI agar dilution", "settings": "E. coli DC-2, unit assumed"}, "[14]": {"test_system": "PROVIDENCIA STUARTII CMX 640", "settings": "P. stuartii CMX 640; BHI agar; unit assumed"}, "[15]": {"test_system": "STREPTOCOCCUS PYOGENES PIU 2548", "assay": "In vitro antibacterial activity, MIC, BHI agar dilution", "settings": "S. pyogenes PIU 2548, unit assumed"}, "[16]": {"test_system": "STAPHYLOCOCCUS AUREUS CMX 642A", "assay": "In vitro antibacterial activity, MIC, BHI agar dilution", "settings": "S. aureus CMX 642A, unit assumed"}, "[17]": {"test_system": "STAPHYLOCOCCUS EPIDERMIDIS 3519", "settings": "S. epidermidis 3519; BHI agar; unit assumed"}, "[18]": {"test_system": "STAPHYLOCOCCUS AUREUS NCTC10649M", "assay": "In vitro antibacterial activity, MIC, BHI agar dilution", "settings": "S. aureus NCTC10649M, unit assumed"}, "[19]": {"test_system": "KLEBSIELLA PNEUMONIAE ATCC 8045", "assay": "In vitro antibacterial activity, MIC, BHI agar dilution", "settings": "K. pneumoniae ATCC 8045, unit assumed"}, "[20]": {"test_system": "ACINETOBACTER CALCOACETICUS CMX 669", "assay": "In vitro antibacterial activity, MIC, BHI agar dilution", "settings": "A. calcoaceticus CMX 669, unit assumed"}, "ESCHERICHIA COLI SS": {"test_system": "ESCHERICHIA COLI SS", "assay": "In vitro antibacterial activity, MIC, BHI agar dilution", "settings": "E. coli SS, unit assumed"}, "M[…] ATCC 9341": {"test_system": "M[…] ATCC 9341", "assay": "In vitro antibacterial activity, MIC, BHI agar dilution", "settings": "M. luteus ATCC 9341, unit assumed", "in_short": "(§1)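 MIC was read visually as the lowest drug level with no growth, a slight haze or sparsely isolated colonies relative to a compound-free growth control. Organisms were spotted at 1:100 dilution (1:10 for slow-growing strains) onto Brain Heart Infusion agar containing serial compound dilutions and incubated 20 to 24 hours at 35-37° C.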"}, "M[…] ATCC 4698": {"test_system": "M[…] ATCC 4698", "assay": "In vitro antibacterial activity, MIC, BHI agar dilution", "settings": "M. luteus ATCC 4698, unit assumed", "in_short": "as §1"}, "EN[…] ATCC 8043": {"test_system": "EN[…] ATCC 8043", "assay": "In vitro antibacterial activity, MIC, BHI agar dilution", "settings": "E. faecium ATCC 8043, unit assumed", "in_short": "as §1"}, "STR[…] 508": {"test_system": "STR[…] 508", "assay": "In vitro antibacterial activity, MIC, BHI agar dilution", "settings": "S. agalactiae CMX 508, unit assumed", "in_short": "as §1"}, "[21]": {"test_system": "PSEUDOMONAS AERUGINOSA DPHD-5263", "assay": "In vitro antibacterial activity, MIC, BHI agar dilution", "settings": "P. aeruginosa DPHD-5263, unit assumed"}, "[22]": {"test_system": "STAPHYLOCOCCUS AUREUS CMX 553", "assay": "In vitro antibacterial activity, MIC, BHI agar dilution", "settings": "S. aureus CMX 553, unit assumed"}, "[23]": {"test_system": "STREPTOCOCCUS BOVIS A-5169", "assay": "In vitro antibacterial activity, MIC, BHI agar dilution", "settings": "S. bovis A-5169, unit assumed"}, "CANDIDA ALBICANS CCH 442": {"test_system": "CANDIDA ALBICANS CCH 442", "assay": "In vitro antibacterial activity, MIC, BHI agar dilution", "settings": "C. albicans CCH 442, unit assumed"}},
  "data": [
    {"smiles": "CC[C@H]1OC(=O)[C@H](C)C(=O)[C@H](C)[C@@H](O[C@@H]2O[C@H](C)C[C@H](N(C)C)[C@H]2O)[C@](C)(OC)C[C@@H](C)C2=NC[C@H](CCCc3ccccc3)N3C(=O)O[C@@]1(C)[C@H]3[C@H]2C", "note": "[Example 40]", "values": [
      {"measurement": "MIC", "setting": "[1]", "result": 0.78, "unit": "µg/mL"},
      {"measurement": "MIC", "setting": "[2]", "result": 0.39, "unit": "µg/mL"},
      {"measurement": "MIC", "setting": "[3]", "result": 100, "unit": "µg/mL"},
      {"measurement": "MIC", "setting": "[4]", "result": "> 100", "unit": "µg/mL"},
      {"measurement": "MIC", "setting": "[5]", "result": "> 100", "unit": "µg/mL"},
      {"measurement": "MIC", "setting": "ESCHERICHIA COLI H560", "result": 25, "unit": "µg/mL"},
      {"measurement": "MIC", "setting": "H. Influenza Dill AMP R", "result": 4, "unit": "µg/mL"},
      {"measurement": "MIC", "setting": "PSEUDOMONAS CEPACIA 296I", "result": "> 100", "unit": "µg/mL"},
      {"measurement": "MIC", "setting": "[6]", "result": 0.02, "unit": "µg/mL"},
      {"measurement": "MIC", "setting": "[7]", "result": 0.78, "unit": "µg/mL"},
      {"measurement": "MIC", "setting": "[8]", "result": "> 100", "unit": "µg/mL"},
      {"measurement": "MIC", "setting": "ESCHERICHIA COLI JUHL", "result": "> 100", "unit": "µg/mL"},
      {"measurement": "MIC", "setting": "ESCHERICHIA COLI KNK 437", "result": "> 100", "unit": "µg/mL"},
      {"measurement": "MIC", "setting": "[9]", "result": "> 100", "unit": "µg/mL"},
      {"measurement": "MIC", "setting": "[10]", "result": 0.78, "unit": "µg/mL"},
      {"measurement": "MIC", "setting": "[11]", "result": "> 100", "unit": "µg/mL"},
      {"measurement": "MIC", "setting": "[12]", "result": "> 100", "unit": "µg/mL"},
      {"measurement": "MIC", "setting": "[13]", "result": "> 100", "unit": "µg/mL"},
      {"measurement": "MIC", "setting": "ESCHERICHIA COLI DC-2", "result": 100, "unit": "µg/mL"},
      {"measurement": "MIC", "setting": "[14]", "result": "> 100", "unit": "µg/mL"},
      {"measurement": "MIC", "setting": "[15]", "result": 0.2, "unit": "µg/mL"},
      {"measurement": "MIC", "setting": "[16]", "result": 0.78, "unit": "µg/mL"},
      {"measurement": "MIC", "setting": "[17]", "result": 0.39, "unit": "µg/mL"},
      {"measurement": "MIC", "setting": "[18]", "result": 0.78, "unit": "µg/mL"},
      {"measurement": "MIC", "setting": "[19]", "result": "> 100", "unit": "µg/mL"},
      {"measurement": "MIC", "setting": "[20]", "result": 50, "unit": "µg/mL"},
      {"measurement": "MIC", "setting": "ESCHERICHIA COLI SS", "result": 0.78, "unit": "µg/mL"},
      {"measurement": "MIC", "setting": "M[…] ATCC 9341", "result": 0.05, "unit": "µg/mL"},
      {"measurement": "MIC", "setting": "M[…] ATCC 4698", "result": 0.39, "unit": "µg/mL"},
      {"measurement": "MIC", "setting": "EN[…] ATCC 8043", "result": 0.05, "unit": "µg/mL"},
      {"measurement": "MIC", "setting": "STR[…] 508", "result": 0.05, "unit": "µg/mL"},
      {"measurement": "MIC", "setting": "[21]", "result": "> 100", "unit": "µg/mL"},
      {"measurement": "MIC", "setting": "[22]", "result": 0.78, "unit": "µg/mL"},
      {"measurement": "MIC", "setting": "[23]", "result": 0.02, "unit": "µg/mL"},
      {"measurement": "MIC", "setting": "CANDIDA ALBICANS CCH 442", "result": "> 100", "unit": "µg/mL"}
    ]}
  ]
}
